{"source": "patent US20220096529A1", "about": "“2-HYDROXYPROPYL-BETA-CYCLODEXTRIN (HPBETACD) FOR USE IN THE TREATMENT OF BREAST CANCER” (UNIVERSITY OF THE WITWATERSRAND, JOHANNESBURG, priority 2019, published 2022)", "key": {"[1]": {"tested_on": "MCF7 cells", "test": "Mitochondrial outer membrane potential assay (MOMP)", "assay_type": "cell-based, human", "settings": "MCF7, 10 mM, 24 hrs", "experimental": "(§1) One of the key hallmarks of apoptosis is the loss of mitochondrial membrane potential. To investigate that aspect we did a MOMP assay which validates our Cell-APOPercentage assay. This assay was tested on three cell lines MCF7, MDA-MB-231 & MRC-5. The top right and bottom hand quadrants of each plot represents healthy (FL2-A) and apoptotic (FL1-A) cells respectively (see FIGS. 13 to 15).\n(§2) From the results obtained from MTT (IC50 values) and Cell-APOPercentage assays it was quite evident that ˜10 mM HPβCD caused cellular growth inhibition through apoptosis in cancer cells and had little or no effect in normal cells. Therefore, we selected just 10 mM HPβCD going forward as the only working concentration for HPβCD treatment. 24 hrs time point was selected (HPβCD & 10 mM H2O2) because mitochondrial membrane potential loss is an early cellular event."}, "[2]": {"tested_on": "MDA-MB-231 cells", "test": "Mitochondrial outer membrane potential assay (MOMP)", "assay_type": "cell-based, human", "settings": "MDA-MB-231, 10 mM, 24 hrs", "experimental": "as §1, §2"}, "[3]": {"tested_on": "MRC-5 cells", "test": "Mitochondrial outer membrane potential assay (MOMP)", "assay_type": "cell-based, human", "settings": "MRC-5, 10 mM HPβCD, 24 hrs", "experimental": "as §1, §2"}, "[4]": {"tested_on": "MCF7 cells", "test": "Cholesterol quantification assay", "assay_type": "cell-based, human", "settings": "MCF7, all concentrations 1, 5, 10, 20, 50 mM", "experimental": "(§3) To investigate if the apoptosis observed from all the above assays was due to cholesterol depletion, a cholesterol assay was performed on all three cell lines: MCF7, MDA-MB-231 and MRC-5. HPβCD and the positive PL, a known cholesterol depletor were treated for 24 hrs.\n(§4) HPβCD and the positive (40 μM PL) were treated for 24 hrs. This assay gave us an estimate of total cholesterol, cholesterol esters and free cholesterol."}, "[5]": {"tested_on": "MDA-MB-231 cells", "test": "Cholesterol quantification assay", "assay_type": "cell-based, human", "settings": "MDA-MB-231, all concentrations 1, 5, 10, 20, 50 mM", "experimental": "as §3, §4"}, "[6]": {"tested_on": "MRC-5 cells", "test": "Cholesterol quantification assay", "assay_type": "cell-based, human", "experimental": "as §3, §4"}, "[7]": {"tested_on": "MCF7 cells", "test": "Filipin cholesterol staining", "assay_type": "cell-based, human"}, "[8]": {"tested_on": "SREBP-1 in MCF7 cells", "test": "Western blotting for SREBP-1", "assay_type": "cell-based, human", "settings": "MCF7, 10 mM HPβCD, 24 hrs", "experimental": "(§5) In order to delve in to more detailed mechanisms of cholesterol depletion a western blotting analysis was conducted for SREBP-1 protein, which is a known transcription factor involved in cholesterol homeostasis. Lysates from MCF7, MDA-MB-231 and MRC-5 cells were used. 10 mM HPβCD was treated for 24 hrs. SREBPs are key elements responsible for the gene expression of vital enzymes involved in fatty acid synthesis which includes SREBP 1 and SREBP 2. […] In order to investigate this characteristic feature of SREBPs a western blot analysis was conducted to see if HPβCD treatment does alter SREBP levels."}, "[9]": {"tested_on": "SREBP-1 in MDA-MB-231 cells", "test": "Western blotting for SREBP-1", "assay_type": "cell-based, human", "settings": "MDA-MB-231, 10 mM HPβCD, 24 hrs", "experimental": "as §5"}, "[10]": {"tested_on": "SREBP-1 in MRC-5 cells", "test": "Western blotting for SREBP-1", "assay_type": "cell-based, human", "settings": "MRC-5, 10 mM HPβCD, 24 hrs", "experimental": "as §5"}, "[11]": {"tested_on": "MDA-MB-231 tumours", "test": "Hematoxylin and eosin staining of xenograft tumours", "assay_type": "in vivo, mice", "description": "Hematoxylin and cosin staining of mice was undertaken in untreated, intermediate and late stage MDA-MB-231 mice as is shown in FIG. 36.\nThe individual cells are markedly pleomorphic and have raised nuclear to cytoplasmic ratios. The neoplastic cells have irregular nuclear borders and the cells have vesicular chromatic with one to multiple prominent nucleoli. Brisk mitotic activity is evident. Areas of perineural and lymphovascular invasion are however, not documented."}, "[12]": {"tested_on": "MCF7 cells", "test": "RT2 Profiler PCR Array Human Lipoprotein Signaling & Cholesterol Metabolism", "assay_type": "cell-based", "settings": "MCF7, majority of genes", "description": "(§6) PCR (polymerase chain reaction) arrays were run to identify gene expression changes in cancer cells after treatment with HPβCD. The differentially expressed genes along with their significance for cancer, some genes were selected for further drug-protein interaction studies.\n(§7) Results from RT^2 Profiler™ PCR Array Human Lipoprotein Signaling & Cholesterol Metabolism (MCF7 and MDA-MB-231) are shown in FIG. 38."}, "[13]": {"tested_on": "MDA-MB-231 cells", "test": "RT2 Profiler PCR Array Human Lipoprotein Signaling & Cholesterol Metabolism", "assay_type": "cell-based", "description": "as §6, §7"}, "[14]": {"tested_on": "MCF7 cells", "test": "RT2 Profiler PCR Array Human Breast cancer", "assay_type": "cell-based", "description": "as §6"}, "[15]": {"tested_on": "MDA-MB-231 cells", "test": "RT2 Profiler PCR Array Human Breast cancer", "assay_type": "cell-based", "description": "as §6"}, "[16]": {"tested_on": "MDA-MB-231 tumours", "test": "Filipin cholesterol staining of tumour tissue from mice", "assay_type": "in vivo", "settings": "intermediate and late stage tumours", "description": "4 from untreated, 3 from intermediate and 4 from late stage."}, "[17]": {"tested_on": "MDA-MB-231 cells", "test": "BODIPY lipid droplet staining", "assay_type": "cell-based, human", "description": "Lipid droplets store cholesterol and HPβCD was able to reduce accumulation and storage of cholesterol in cancer cells."}, "[18]": {"tested_on": "MCF7 cells", "test": "BODIPY lipid droplet staining", "assay_type": "cell-based, human", "experimental": "Lipid droplets store cholesterol and HPβCD was able to reduce accumulation and storage of cholesterol in cancer cells (see FIG. 52). […] (A) is untreated, (B) is positive and (C) is treated. […] Lipid droplets store cholesterol and HPβCD was able to reduce accumulation and storage of cholesterol in cancer cells."}, "[19]": {"tested_on": "MDA-MB-231 cells", "test": "Alexa Fluor lipid raft staining", "assay_type": "cell-based, human"}, "[20]": {"tested_on": "MCF7 cells", "test": "Alexa Fluor lipid raft staining", "assay_type": "cell-based, human", "experimental": "(B) is positive and (C) is treated."}, "[21]": {"settings": "late stage treated mice, one value per case"}}, "note": "Several values for one entry are separate records, joined by “and”; a condition that tells them apart may be missing. Equal values may be shown once. Entries after “also recorded” stand apart in the source; their conditions may differ."}
{"substance": "2-hydroxypropyl-β-cyclodextrin [HPβCD]", "values": [{"measurement": "apoptotic population (loss of mitochondrial membrane potential)", "setting": "[1]", "result": 92.1, "unit": "%"}, {"measurement": "apoptotic cells / cell death (loss of mitochondrial membrane potential)", "setting": "[2]", "result": 78.1, "unit": "%"}, {"measurement": "apoptotic cells", "setting": "[3]", "result": 12.8, "unit": "%"}, {"measurement": "non-apoptotic/healthy population", "setting": "[3]", "result": 98.2, "unit": "%"}, {"measurement": "total cholesterol content compared to untreated", "setting": "[4]", "result": "reduced total cholesterol content"}, {"measurement": "total cholesterol content compared to untreated", "setting": "[5]", "result": "reduced total cholesterol content"}, {"measurement": "total cholesterol reduction compared to untreated", "setting": "[6]; MRC-5, 10 mM HPβCD, 24 hrs", "result": "more than 50%"}, {"measurement": "total cholesterol content compared to untreated", "setting": "[6]; MRC-5, all concentrations 1, 5, 10, 20, 50 mM", "result": "reduced total cholesterol content"}, {"measurement": "Filipin fluorescence compared to untreated", "setting": "[7]; MCF7, 10 mM HPβCD, 24 hrs, ImageJ", "result": "four times less fluorescence"}, {"measurement": "cholesterol (Filipin staining) in treated vs untreated cells", "setting": "[7]; MCF7, FIG. 51", "result": "decreased cholesterol"}, {"measurement": "SREBP-1 protein level compared to untreated lysate", "setting": "[8]", "result": "about five times less activity of SREBP-1"}, {"measurement": "SREBP-1 protein level compared to untreated lysate", "setting": "[9]", "result": "about two and a half times less activity of SREBP-1"}, {"measurement": "SREBP-1 activity compared to untreated lysate", "setting": "[10]", "result": "remained equal"}, {"measurement": "necrosis, share of the total tumour examined", "setting": "[11]; intermediate group", "result": "6-10%"}, {"measurement": "MITOSES", "setting": "[11]; intermediate stage treated mice, one value per case", "result": "70 Atypical and 59 Atypical and 67 Atypical"}, {"measurement": "NECROSIS", "setting": "[11]; intermediate stage treated mice, one value per case (INTM 13, 31, 32)", "result": "Focal necrosis; also recorded: Occasional; also recorded: Multiple pockets"}, {"measurement": "apoptotic cells compared to the intermediate group", "setting": "[11]; late group", "result": 2.9, "unit": "times"}, {"measurement": "increase in number of apoptotic cells compared to the untreated group", "setting": "[11]; late group", "result": "~1.7", "unit": "fold"}, {"measurement": "mitotic activity lower than in the other two groups", "setting": "[11]; late group", "result": "approximately 1.1 times"}, {"measurement": "increase in necrosis compared to the untreated group", "setting": "[11]; late group, case Late 12", "result": "~4", "unit": "fold"}, {"measurement": "necrosis, share of the tissue examined", "setting": "[11]; late group, case Late 12", "result": "up to 20%"}, {"measurement": "APOPTOSIS/ 10 HPF", "setting": "[11]; [21]", "result": "21 and 30 and 39 and 32 and 27"}, {"measurement": "EPID/ MUSCLE INV.", "setting": "[11]; [21]", "result": "No muscle present; also recorded: No muscle or epidermis; also recorded: Muscle invasion"}, {"measurement": "MITOSES", "setting": "[11]; [21]", "result": "60 and 65 and 57 and 59 and 50"}, {"measurement": "NECROSIS", "setting": "[11]; late stage treated mice, one value per case (LATE 8 (1), 8 (2), 11, 12, 14)", "result": "Necrosis seen"}, {"measurement": "genes involved in cholesterol related pathways", "setting": "[12]", "result": "downregulated"}, {"measurement": "ABCA1 gene expression", "setting": "[13]; MDA-MB-231, HPβCD treated", "result": "upregulation"}, {"measurement": "genes involved in cholesterol related pathways", "setting": "[13]; MDA-MB-231, majority of genes", "result": "downregulated"}, {"measurement": "ADAM23 gene expression", "setting": "[14]", "result": "downregulated by many folds"}, {"measurement": "CTSD gene expression", "setting": "[14]", "result": "significantly downregulated"}, {"measurement": "ADAM23 gene expression", "setting": "[15]", "result": "upregulated"}, {"measurement": "Akt1 gene expression", "setting": "[15]", "result": "upregulated"}, {"measurement": "CTSD gene expression", "setting": "[15]", "result": "upregulated"}, {"measurement": "GATA3 gene expression", "setting": "[15]", "result": "downregulated"}, {"measurement": "SFRP1 gene expression", "setting": "[15]", "result": "upregulated"}, {"measurement": "cholesterol (Filipin staining) in tumours compared to untreated", "setting": "[16]", "result": "decreased cholesterol"}, {"measurement": "lipid droplets (BODIPY) in treated vs untreated cells", "setting": "[17]", "result": "decrease in lipid droplets"}, {"measurement": "lipid droplets (BODIPY) in treated vs untreated cells", "setting": "[18]", "result": "decrease in lipid droplets"}, {"measurement": "lipid rafts (ALEXA FLUOR) in treated vs untreated cells", "setting": "[19]", "result": "decrease in lipid rafts"}, {"measurement": "lipid rafts (ALEXA FLUOR) in treated vs untreated cells", "setting": "[20]", "result": "decrease in lipid rafts"}]}
